Source: patent publication EP0179751B1, “Ionophore polyether, process for its preparation and its use” (SANOFI, priority 1984, dated 1986)
In brackets after ≈: the same amount, converted by molar mass. Read-outs that look alike come from different tables or passages of the source.

What was measured:
solubility = type: physicochemical
Description: Aspect: solide P.F. : 83-85° C Solubilité : se dissout dans les solvants organiques usuels, tels que les alcools inférieurs par exemple méthanol, éthanol, les esters inférieurs, par exemple l'acétate d'éthyle ou encore dans l'éther éthylique et le chloroforme. Dans l'eau, la solubilité est de 44 % environ. αj25 : +45° (c = 0,03 n, méthanol)
Aspect : mousse blanche solide. P.F. 120-123° C Solubilité : se dissout dans les solvants organiques usuels, tels que les alcools inférieurs par exemple méthanol, éthanol, les esters inférieurs par exemple l'acétate d'éthyle ou encore dans l'éther éthylique et le chloroforme. Par contre, il est insoluble dans l'eau.

Bacillus cereus = experiment: minimum inhibitory concentration, dilution method; type: cell-based
From the text: Par exemple, on a décrit dans les brevets de l'Allemagne de l'Est Nos. 208 172 et 237 725 des complexes d'antibiotiques produits à partir de souches de Streptomyces hygroscopicus. Ces composés polyéthers sont caractérisés par une activité antibiotique importante et comparativement plus importante que celle présentée par la monensine ou la salinomycine. Par contre, l'abiérixine est douée d'activité antibiotique très faible par rapport à celle présentée par la plupart des ionophores polyéthers connus comme la monensine, la nigéricine ou la grisorixine. Par exemple, la concentration minimale inhibitrice de l'abiérixine vis-à-vis de Bacillus cereus déterminée selon la méthode de dilution est de 25 µg/ml mais de 0,05 µg/ml, 0,05 ug/ml et 3,12 gg/ml dans le cas respectivement de la monensine, de la nigéricine et de la grisorixine.

[1] = cited from earlier work
[2] = system: Streptomyces hygroscopicus NRRL 3602; experiment: sensitivity of producer strain to nigericin (MIC); type: cell-based
[3] = system: Streptomyces hygroscopicus NRRL B 1865; experiment: sensitivity of producer strain to nigericin (MIC); type: cell-based
flore ruménale = experiment: in vitro rumen flora fermentation, nitrogen use; settings: in the absence of protein nitrogen
[4] = system: Streptomyces C.N.C.M.-I-321; experiment: sensitivity of producer strain to nigericin (MIC); type: cell-based
[5] = mouse, in vivo; cited from earlier work
Eimeria tenella = experiment: anticoccidial test in cockerels inoculated with Eimeria tenella; type: in vivo; settings: for Lésion individuelle Moyenne: Reid lesion score; for IC de J - 2 à J + 8: feed conversion index; for EO x 10^3 Total: oocyst excretion J+4 to J+8; for EO %: oocyst excretion relative to CTNT; for P = poids moyen à J + 8: start weight 127 g
From the text: Des tests ont été effectués de manière à montrer l'efficacité de l'abiérixine comme agent anticoccidien dans lesquels on a relevé les résultats zootechniques (poids, indice de consommation) et les symptômes […] de coccidiose (morbidité, mortalité, aspect des matières fécales, excrétion ookystale, lésions).
On a utilisé à cet effet le protocole expérimental suivant : • Animaux • - Coquelets de souche génétique Warren Sex Sal Link • - Age le jour de l'inoculation (J O) : 17 jours • - Age le jour de l'abattage (J +8) : 25 jours
Inoculum Dose : 300 000 oocystes sporulés d'Eimeria tenella
Alimentation • - Aliment utilisé : aliment type poulet de chair, 1er âge • - Anticoccidien utilisé : l'abiérixine à la dose de 40 ou 50 ppm/jour depuis J-2 jusqu'à J +8
Lots • - Nombre d'animaux par lot : 4 • - Répartition des lots : • NCNT : animaux non contaminés, non traités • CTNT : animaux contaminés, non traités • CTT, : animaux contaminés, traités avec 40 ppm d'abiérixine • CTT2 : animaux contaminés, traités avec 50 ppm d'abiérixine
Les critères • - Les gains de poids (GP) de J-2 à J +8 • - L'excrétion ookystale (EO) journalière de J+4 à J+8 • - La morbidité (M) notée de 0 à 4 • - L'aspect des fécès noté de 0 : fécès normales à 4 : fécès diarrhéiques ou hémorragiques (MF) • - La mortalité (M %) exprimée en pourcentage • - Les lésions (L) notées selon la notation de RFID (W. Malcolm REID, "A diagnostic chart of nine species of fowl coccidia - Georgia Agricultural Experiment Stations - Dec. 1964, Technical Bulletin N. S. 39) • - Les indices de consommation (IC)

acute toxicity, oral = settings: mouse, in vivo, souris, voie orale, read-out: toxicité aiguë DL50
Description: On a trouvé, par exemple, que la toxicité aiguë DL50 de l'abiérixine chez la souris par voie orale est comprise entre 600 et 1000 mg/kg alors que, dans les mêmes conditions, la toxicité d'autres polyéthers polycycliques se révèle beaucoup plus importante, de l'ordre de 50 mg/kg (DL50 lonomycine : 50 mg/kg, complexe de monensine- : 43,8 mg/kg, salinomycine- : 50 mg/kg).

[6] = souris, voie orale, comparison polyethers
[7] = CTT1: 40 ppm, J + 6, score 0 to 4
[8] = CTT1: 40 ppm, J + 7, score 0 to 4
[9] = CTT2: 50 ppm, J + 6, score 0 to 4
[10] = CTT2: 50 ppm, J + 7, score 0 to 4

## COC1CC(CC(O)CCC(C)C=C(C)C(=O)O)OC2(OC(C)(C3CCC(C)(C4OC(C5OC(O)(CO)C(C)CC5C)CC4C)O3)CC2C)C1C (stereo not shown) [abiérixine monohydratée]
solubility; méthanol, éthanol, acétate d'éthyle, éther éthylique, chloroforme
  Solubilité dans les solvants organiques usuels: se dissout
solubility; water, read-out: Solubilité dans l'eau
  solubility: ~440 mg/mL (≈ 607 mM)

## CO[C@@H]1C[C@@H](C[C@H]2CC[C@H](C)C(C(C)C(=O)O)O2)O[C@]2(OC(C)(C3CCC(C)(C4O[C@@H]([C@H]5O[C@](C)(O)[C@H](C)C[C@@H]5C)C[C@@H]4C)O3)CC2C)[C@@H]1C (stereo partly shown) [grisorixine]
Bacillus cereus
  concentration minimale inhibitrice: 3,12 gg/ml

## lonomycine
[1]; [6]
  DL50: 50 mg/kg

## complexe de monensine
[1]; [6]
  DL50: 43,8 mg/kg

## nigéricine
[2]
  Sensibilité à la nigéricine (C.M.I): > 500 µg/mL
[3]
  Sensibilité à la nigéricine (C.M.I): > 500 µg/mL
Flore ruménale
  diminution de l'efficacité de la synthèse microbienne: > 30%
[4]
  Sensibilité à la nigéricine (C.M.I): > 500 µg/mL
Bacillus cereus
  concentration minimale inhibitrice: 0,05 ug/ml

## COC1CC(CC(O)CCC(C)C=C(C)C(=O)O)OC2(OC(C)(C3CCC(C)(C4OC(C5OC(O)(CO)C(C)CC5C)CC4C)O3)CC2C)C1C (stereo not shown) [sel de sodium de l'abiérixine]
solubility; water, in words
  Solubilité dans l'eau: insoluble

## CC[C@@H](C(=O)[C@@H](C)[C@@H](O)[C@H](C)[C@@H]1O[C@@H]([C@@H](CC)C(=O)O)CC[C@@H]1C)[C@H]1O[C@]2(C=C[C@@H](O)[C@]3(CC[C@@](C)([C@H]4CC[C@](O)(CC)[C@H](C)O4)O3)O2)[C@H](C)C[C@@H]1C [salinomycine]
[1]; mouse, in vivo, po
  DL50: 50 mg/kg
[5]
  DL50: 18 mg/kg

## COC1CC(CC(O)CCC(C)C=C(C)C(=O)O)OC2(OC(C)(C3CCC(C)(C4OC(C5OC(O)(CO)C(C)CC5C)CC4C)O3)CC2C)C1C (stereo not shown) [abiérixine]
Eimeria tenella; 40 ppm/jour for 10 days, cockerels infected with E. tenella
  croissance pondérale: augmente la croissance pondérale
Eimeria tenella; CTT1: 40 ppm
  M % (mortalité): 0%
  Lésion individuelle Moyenne: 2,5
  IC de J - 2 à J + 8: 2,8
  EO x 10^3 Total: 4165 x 10^3
  EO %: 74,0%
Eimeria tenella; CTT1: 40 ppm in feed J-2 to J+8
  GP = gain de poids moyen de J - 2 à J + 8: 93 g
Eimeria tenella; CTT1: 40 ppm, J + 5, score 0 normal to 4 diarrhoeic or haemorrhagic
  MF (aspect des fécès): 4
Eimeria tenella; CTT1: 40 ppm, J + 5, score 0 to 4
  M (morbidité): 3
Eimeria tenella; [7]
  M (morbidité): 0
  MF (aspect des fécès): 1
Eimeria tenella; [8]
  M (morbidité): 0
  MF (aspect des fécès): 0
Eimeria tenella; CTT1: infected cockerels, 40 ppm in feed J-2 to J+8
  P = poids moyen à J + 8: 219 g
Eimeria tenella; CTT2: 50 ppm
  M % (mortalité): 0%
  Lésion individuelle Moyenne: 3,5
  IC de J - 2 à J + 8: 3,35
  EO x 10^3 Total: 2324 x 10^3
  EO %: 41,3%
Eimeria tenella; CTT2: 50 ppm in feed J-2 to J+8
  GP = gain de poids moyen de J - 2 à J + 8: 63 g
Eimeria tenella; CTT2: 50 ppm, J + 5, score 0 normal to 4 diarrhoeic or haemorrhagic
  MF (aspect des fécès): 3
Eimeria tenella; CTT2: 50 ppm, J + 5, score 0 to 4
  M (morbidité): 3
Eimeria tenella; [9]
  M (morbidité): 0
  MF (aspect des fécès): 1
Eimeria tenella; [10]
  M (morbidité): 0
  MF (aspect des fécès): 0
Eimeria tenella; CTT2: infected cockerels, 50 ppm in feed J-2 to J+8
  P = poids moyen à J + 8: 190 g
Flore ruménale
  diminution de l'efficacité de la synthèse microbienne: 10%
Acute toxicity, oral
  LD50: 600 to 1000 mg/kg
Bacillus cereus; read-out: concentration minimale inhibitrice
  MIC: 25 µg/mL (≈ 0.0345 mM)
